From the Kinase Knowledgebase extract (Sharma et al. 2016)

Biological target: PIK3CB;PIK3CG;PIK3CD;PIK3CA (human) (UniProt P48736)
Experiment: Inhibition of PIK3CA/PIK3CB/PIK3CD/PIK3CG Kinase Activity

| Compound | IC50 [nM] |
| --- | --- |
| O=C(O)c1cc(NCCO)c2nc(N3CCOCC3)nc(-c3ccc(O)cc3)c2n1 | 732 |
| COCCNc1cc(C(=O)O)nc2c(-c3cccc(COC)c3)nc(N3CCOCC3)nc12 | 1830 |
| CN(C)c1cc(C(=O)O)nc2c(-c3ccc(O)cc3)nc(N3CCOCC3)nc12 | 350 |
| COCCNc1cc(C(=O)O)nc2c(-c3cccc4[nH]ccc34)nc(N3CCOCC3)nc12 | 128 |
| Cc1cc(C(=O)O)nc2c(-c3cccc(O)c3)nc(N3CCOCC3)nc12 | 225 |
| CN(C)CCN(C)c1cc(C(=O)O)nc2c(-c3cccc4[nH]ccc34)nc(N3CCOCC3)nc12 | 137 |
| COCc1cccc(-c2nc(N3CCOCC3)nc3c(N(C)CCO)cc(C(=O)O)nc23)c1 | 1850 |
| COCCNc1cc(C(=O)O)nc2c(-c3cc(F)ccc3O)nc(N3CCOCC3)nc12 | 73 |
| CN(C)c1cc(C(=O)O)nc2c(-c3ccc(F)cc3O)nc(N3CCOCC3)nc12 | 83 |
| COCCOc1cc(C(=O)O)nc2c(-c3cc(O)cc(F)c3)nc(N3CCOCC3)nc12 | 93 |
| COCCN(C)c1cc(C(=O)O)nc2c(-c3ccc(O)cc3)nc(N3CCOCC3)nc12 | 290 |
| COc1cccc(-c2nc(N3CCOCC3)nc3c(Cl)cc(C(=O)O)nc23)c1 | 1080 |
| CN(C)c1cc(C(=O)O)nc2c(-c3ccccc3O)nc(N3CCOCC3)nc12 | 23 |
| COCCN(C)c1cc(C(=O)O)nc2c(-c3cccc(CO)c3)nc(N3CCOCC3)nc12 | 8 |
| CNc1cc(C(=O)O)nc2c(-c3ccc(F)cc3O)nc(N3CCOCC3)nc12 | 412 |
| CS(=O)(=O)N1CCN(c2cc(C(=O)O)nc3c(-c4cccc(O)c4)nc(N4CCOCC4)nc23)CC1 | 15 |
| COCCOc1cc(C(=O)O)nc2c(-c3cccc(O)c3)nc(N3CCOCC3)nc12 | 255 |
| CN(C)CCN(C)c1cc(C(=O)O)nc2c(-c3ccccc3O)nc(N3CCOCC3)nc12 | 459 |
| COCCN(C)c1cc(C(=O)O)nc2c(-c3cc(O)cc(F)c3)nc(N3CCOCC3)nc12 | 19 |
| COCCNc1cc(C(=O)O)nc2c(-c3ccc(F)cc3O)nc(N3CCOCC3)nc12 | 89 |
| CN(C)c1cc(C(=O)O)nc2c(-c3cccc(C#N)c3)nc(N3CCOCC3)nc12 | 1100 |
| COCCN(C)c1cc(C(=O)O)nc2c(-c3cc(F)cc(F)c3)nc(N3CCOCC3)nc12 | 1290 |

| Compound | IC50 [nM] |
| --- | --- |
| CN(C)CCN(C)c1cc(C(=O)O)nc2c(-c3cc(F)ccc3O)nc(N3CCOCC3)nc12 | 564 |
| CC(=O)N1CCN(c2cc(C(=O)O)nc3c(-c4cccc(O)c4)nc(N4CCOCC4)nc23)CC1 | 80 |
| CN(CCO)c1cc(C(=O)O)nc2c(-c3ccc(F)c(CO)c3)nc(N3CCOCC3)nc12 | 303 |
| COCCNc1cc(C(=O)O)nc2c(-c3cccc(F)c3O)nc(N3CCOCC3)nc12 | 18 |
| O=C(O)c1cc(NCCO)c2nc(N3CCOCC3)nc(-c3cc(O)cc(F)c3)c2n1 | 64 |
| CNc1cc(C(=O)O)nc2c(-c3cccc(F)c3O)nc(N3CCOCC3)nc12 | 48 |
| CN(C)c1cc(C(=O)O)nc2c(-c3cccc4[nH]ccc34)nc(N3CCOCC3)nc12 | 132 |
| Cc1cc(O)ccc1-c1nc(N2CCOCC2)nc2c(N(C)CCO)cc(C(=O)O)nc12 | 936 |
| COCCN(C)c1cc(C(=O)O)nc2c(-c3ccc(F)cc3O)nc(N3CCOCC3)nc12 | 62 |
| COCCN(C)c1cc(C(=O)O)nc2c(-c3ccc4[nH]ccc4c3)nc(N3CCOCC3)nc12 | 169 |
| CS(=O)(=O)c1cc(C(=O)O)nc2c(-c3cccc(F)c3O)nc(N3CCOCC3)nc12 | 26 |
| O=C(O)c1cc(NCCO)c2nc(N3CCOCC3)nc(-c3cccc(CO)c3)c2n1 | 27 |
| CN(C)c1cc(C(=O)O)nc2c(-c3ccc(F)c(CO)c3)nc(N3CCOCC3)nc12 | 329 |
| O=C(O)c1ccc2nc(N3CCOCC3)nc(-c3cccc(O)c3)c2n1 | 63 |
| COCCN(C)c1cc(C(=O)O)nc2c(-c3cccc(F)c3O)nc(N3CCOCC3)nc12 | 9 |
| CNc1cc(C(=O)O)nc2c(-c3cccc(O)c3)nc(N3CCOCC3)nc12 | 144 |
| CN(CCO)c1cc(C(=O)O)nc2c(-c3cccc(F)c3O)nc(N3CCOCC3)nc12 | 10 |
| CN(CCO)c1cc(C(=O)O)nc2c(-c3ccc(F)cc3O)nc(N3CCOCC3)nc12 | 220 |
| CNc1cc(C(=O)O)nc2c(-c3cc(F)ccc3O)nc(N3CCOCC3)nc12 | 304 |
| CS(=O)(=O)c1cc(C(=O)O)nc2c(-c3cc(O)cc(F)c3)nc(N3CCOCC3)nc12 | 15 |
| COCCOc1cc(C(=O)O)nc2c(-c3ccc(O)cc3)nc(N3CCOCC3)nc12 | 2520 |
| CN(CCO)c1cc(C(=O)O)nc2c(-c3cccc4[nH]ccc34)nc(N3CCOCC3)nc12 | 77 |

| Compound | IC50 [nM] |
| --- | --- |
| CN(CCO)c1cc(C(=O)O)nc2c(-c3cccc(CO)c3)nc(N3CCOCC3)nc12 | 74 |
| CS(=O)(=O)c1cc(C(=O)O)nc2c(-c3cc(F)ccc3O)nc(N3CCOCC3)nc12 | 139 |
| COc1cccc(-c2nc(N3CCOCC3)nc3ccc(C(=O)O)nc23)c1 | 4490 |
| CNc1cc(C(=O)O)nc2c(-c3cccc4[nH]ccc34)nc(N3CCOCC3)nc12 | 780 |
| COCc1cccc(-c2nc(N3CCOCC3)nc3c(NCCO)cc(C(=O)O)nc23)c1 | 2490 |
| O=C(O)c1cc(NCCO)c2nc(N3CCOCC3)nc(-c3ccccc3O)c2n1 | 82 |
| CN(C)c1cc(C(=O)O)nc2c(-c3cc(F)ccc3O)nc(N3CCOCC3)nc12 | 66 |
| COCCNc1cc(C(=O)O)nc2c(-c3ccc(CO)cc3)nc(N3CCOCC3)nc12 | 346 |
| COCCNc1cc(C(=O)O)nc2c(-c3ccc(O)cc3)nc(N3CCOCC3)nc12 | 504 |
| O=C(O)c1cc(Cl)c2nc(N3CCOCC3)nc(-c3cccc(O)c3)c2n1 | 108 |
| O=C(O)c1cc(NCCO)c2nc(N3CCOCC3)nc(-c3cccc(F)c3O)c2n1 | 43 |
| O=C(O)c1ccc2nc(N3CCOCC3)nc(-c3ccc(O)cc3)c2n1 | 855 |
| CS(=O)(=O)c1cc(C(=O)O)nc2c(-c3ccc(O)c(F)c3)nc(N3CCOCC3)nc12 | 335 |
| COCc1cccc(-c2nc(N3CCOCC3)nc3c(N(C)C)cc(C(=O)O)nc23)c1 | 5050 |
| COCCN(C)c1cc(C(=O)O)nc2c(-c3cccc(O)c3)nc(N3CCOCC3)nc12 | 28 |
| CS(=O)(=O)N1CCN(c2cc(C(=O)O)nc3c(-c4ccccc4)nc(N4CCOCC4)nc23)CC1 | 30 |
| O=C(O)c1cc(-c2cccc3ccccc23)c2nc(N3CCOCC3)nc(-c3cccc(O)c3)c2n1 | 57 |
| CN(C)c1cc(C(=O)O)nc2c(-c3cccc(CO)c3)nc(N3CCOCC3)nc12 | 34 |
| COCCN(C)c1cc(C(=O)O)nc2c(-c3ccc(CO)cc3)nc(N3CCOCC3)nc12 | 546 |
| O=C(O)c1cc(NCCO)c2nc(N3CCOCC3)nc(-c3cccc(O)c3)c2n1 | 75 |
| O=C(O)c1cc(Cl)c2nc(N3CCOCC3)nc(-c3ccccc3)c2n1 | 678 |
| COc1ccccc1-c1cc(C(=O)O)nc2c(-c3cccc(O)c3)nc(N3CCOCC3)nc12 | 24 |
